Like-named read-outs stand apart in the source and are kept apart here.
What was measured:
[1] = system: NIH 3T3 (non-malignant mouse fibroblasts); assay: SRB cytotoxicity assay, 72 h; assay type: cell-based; conditions: Mus musculus, NIH3T3; NIH 3T3, 72 h, cut-off 30 µM; read-out: EC50
Protocol: The cytotoxicity of compounds 1–20 was evaluated by means of a colorimetric sulforhodamine B (SRB) assay. For all compounds, the EC50 values were determined for the human tumor cell lines A375 (malignant melanoma), HT29 (colorectal carcinoma), MCF-7 (breast carcinoma), A2780 (ovarian carcinoma), FaDu (hypopharyngeal carcinoma), and NIH 3T3 (non-malignant mouse fibroblasts).
In short, exponentially growing cells were seeded into 96-well plates on day 0 at the appropriate cell densities to prevent confluence of the cells during the period of experiment. After 24 h, the cells were treated with serial dilutions of the compounds (0–30 µM) for 72 h. The final concentration of DMSO never exceeded 0.5%, which was non-toxic to the cells. After a 72 h treatment, the supernatant medium from the 96-well plates was discarded, and the cells were fixed with 10% TCA. For a thorough fixation, the plates were allowed to rest at 4 °C. After fixation, the cells were washed in a strip washer. The washing was done four times with water using alternate dispensing and aspiration procedures. The plates were then dyed with 100 µL of 0.4% SRB for about 20 min. After dying, the plates were washed with 1% acetic acid to remove the excess of the dye and allowed to air-dry overnight. Tris base solution (200 µL, 10 mM) was added to each well and absorbance was measured at λ = 570 nm (using a 96 well plate reader, Tecan Spectra, Crailsheim, Germany). The percentages of surviving cells relative to untreated controls were determined.

[2] = system: MDA-MB-435 (Melanoma); assay: NCI-60 screen (SRB, 48 h); assay type: cell-based
[3] = system: MDA-MB-468 (Breast cancer); assay: cells; conditions: Homo sapiens; for GI50: MDA-MB-468; for IC (TGI): MDA-MB-468, 48 h, read-out: TGI
[4] = system: NSC lung cancer subpanel; assay: NCI-60 screen, subpanel; conditions: Homo sapiens; for IC (TGI): 48 h, read-out: TGI MG_MID; for GI50: read-out: GI50 MG_MID
[5] = system: Ovarian Cancer subpanel; assay: NCI-60 screen, subpanel; conditions: Homo sapiens; for IC (TGI): 48 h, read-out: TGI MG_MID; for GI50: read-out: GI50 MG_MID; for CC50: read-out: LC50 MG_MID
[6] = system: MOLT-4 (Leukemia); assay: NCI-60 screen (SRB, 48 h); conditions: Homo sapiens; for GI50: MOLT-4
[7] = system: HOP-62 (NSC lung cancer); assay: NCI-60 screen (SRB, 48 h); conditions: Homo sapiens; for GI50: HOP-62; for IC (TGI): HOP-62, 48 h, read-out: TGI
[8] = system: HOP-92 (NSC lung cancer); assay: NCI-60 screen (SRB, 48 h); conditions: Homo sapiens; for GI50: HOP-92; for IC (TGI): HOP-92, 48 h, read-out: TGI
[9] = system: COLO 205 (Colon cancer); assay: NCI-60 screen (SRB, 48 h); conditions: Homo sapiens; for GI50: COLO 205; for IC (TGI): COLO 205, 48 h, read-out: TGI
[10] = system: HCT-116 (Colon cancer); assay: NCI-60 screen (SRB, 48 h); conditions: Homo sapiens; for GI50: HCT-116; for IC (TGI): read-out: TGI
[11] = system: SF-268 (CNS cancer); assay: NCI-60 screen (SRB, 48 h); conditions: Homo sapiens; for GI50: SF-268; for IC (TGI): SF-268, 48 h, read-out: TGI
[12] = system: SF-539 (CNS cancer); assay: NCI-60 screen (SRB, 48 h); conditions: Homo sapiens; for GI50: SF-539
[13] = system: M14 (Melanoma); assay: NCI-60 screen (SRB, 48 h); conditions: Homo sapiens; for GI50: M14; for IC (TGI): M14, 48 h, read-out: TGI
[14] = system: UACC-62 (Melanoma); assay: NCI-60 screen (SRB, 48 h); conditions: Homo sapiens; for GI50: UACC-62; for IC (TGI): UACC-62, 48 h, read-out: TGI
[15] = system: OVCAR-5 (Ovarian cancer); assay: NCI-60 screen (SRB, 48 h); conditions: for GI50 / IC (TGI): Homo sapiens; for GI50: OVCAR-5; for IC (TGI): OVCAR-5, 48 h, read-out: TGI
[16] = system: OVCAR-8 (Ovarian cancer); assay: NCI-60 screen (SRB, 48 h); conditions: Homo sapiens; for GI50: OVCAR-8; for IC (TGI): OVCAR-8, 48 h, read-out: TGI
[17] = system: SK-OV-3 (Ovarian cancer); assay: NCI-60 screen (SRB, 48 h); conditions: Homo sapiens; for GI50: SK-OV-3; for IC (TGI): SK-OV-3, 48 h, read-out: TGI; for CC50: SK-OV-3, read-out: LC50
[18] = system: 786-0 (Renal cancer); assay: NCI-60 screen (SRB, 48 h); conditions: Homo sapiens; for GI50: 786-0; for IC (TGI): 786-0, 48 h, read-out: TGI
[19] = system: CAKI-1 (Renal cancer); assay: NCI-60 screen (SRB, 48 h); conditions: for GI50 / IC (TGI) / CC50: Homo sapiens; for GI50: CAKI-1; for IC (TGI): CAKI-1, 48 h, read-out: TGI; for CC50: CAKI-1, read-out: LC50
[20] = system: RXF 393 (Renal cancer); assay: NCI-60 screen (SRB, 48 h); conditions: for GI50: RXF 393; for IC (TGI): RXF 393, 48 h, read-out: TGI
[21] = system: PC-3 (Prostate cancer); assay: NCI-60 screen (SRB, 48 h); conditions: Homo sapiens; for GI50: PC-3; for IC (TGI): PC-3, 48 h, read-out: TGI

## C=C(C)[C@@H]1CCC=C2CC[C@]3(C)[C@H](CC[C@@H]4[C@@]5(C)CCCNC(C)(C)[C@@H]5CC[C@]43C)[C@H]21 [Compound 8]
[1]
  EC50: 2.41 ± 0.5 µM
[2]; Homo sapiens, MDA-MB-435
  GI50: 1.87 µM
[2]; Homo sapiens, MDA-MB-435, 48 h, read-out: TGI
  IC (TGI): 3.49 µM
[2]; Homo sapiens, MDA-MB-435; read-out: LC50 (the source's name)
  CC50: 6.51 µM
[3]
  GI50: 1.78 µM
  IC (TGI): 3.43 µM
[3]; MDA-MB-468, read-out: LC50
  CC50: 6.6 µM
[4]
  IC (TGI): 3.3 µM
  GI50: 1.73 µM
[4]; read-out: LC50 MG_MID
  CC50: 6.18 µM
[5]
  IC (TGI): 3.5 µM
  GI50: 1.84 µM
  CC50: 6.78 µM
[6]
  GI50: 1.09 µM
[7]
  GI50: 1.82 µM
  IC (TGI): 3.41 µM
[7]; HOP-62, read-out: LC50
  CC50: 6.38 µM
[8]
  GI50: 1.37 µM
  IC (TGI): 2.77 µM
[8]; HOP-92, read-out: LC50
  CC50: 5.61 µM
[9]
  GI50: 1.38 µM
  IC (TGI): 2.79 µM
[9]; COLO 205, read-out: LC50
  CC50: 5.64 µM
[10]
  GI50: 1.37 µM
[10]; HCT-116, 48 h, read-out: Growth % of the Most Sensitive Cell Lines
  activity at 10 µM: -96.2%
[10]; HCT-116, 48 h
  IC (TGI): 2.82 µM
[11]
  GI50: 1.91 µM
  IC (TGI): 3.64 µM
[12]
  GI50: 1.52 µM
[12]; SF-539, 48 h, read-out: TGI
  IC (TGI): 2.99 µM
[13]
  GI50: 1.89 µM
  IC (TGI): 3.38 µM
[14]
  GI50: 1.73 µM
  IC (TGI): 3.16 µM
[14]; UACC-62, read-out: LC50
  CC50: 5.76 µM
[15]
  GI50: 1.75 µM
  IC (TGI): 3.32 µM
[16]
  GI50: 1.99 µM
  IC (TGI): 3.94 µM
[16]; OVCAR-8, read-out: LC50
  CC50: 7.79 µM
[17]
  GI50: 1.81 µM
  IC (TGI): 3.37 µM
  CC50: 6.28 µM
[18]
  GI50: 1.76 µM
  IC (TGI): 3.51 µM
[19]; CAKI-1, 1 dose 10 µM
  Growth % of the Most Sensitive Cell Lines: −92.49%
[19]
  GI50: 1.81 µM
  IC (TGI): 3.22 µM
  CC50: 5.73 µM
[20]; Homo sapiens
  GI50: 1.74 µM
  IC (TGI): 3.32 µM
[20]; Homo sapiens, RXF 393, read-out: LC50
  CC50: 6.33 µM
[20]; RXF 393, 1 dose 10 µM
  Growth % of the Most Sensitive Cell Lines: −91.86%
[21]
  GI50: 1.65 µM
  IC (TGI): 3.06 µM
[21]; PC-3, read-out: LC50
  CC50: 5.68 µM

## C=C(C)[C@@H]1CC[C@]2(COS(=O)(=O)c3ccc(C)cc3)CC[C@]3(C)[C@@H](CC[C@@H]4[C@@]5(C)CCCNC(C)(C)[C@@H]5CC[C@]43C)[C@@H]12 [Compound 12]
[1]
  EC50: 1.94 ± 0.2 µM
[2]; Homo sapiens, MDA-MB-435, 48 h; read-out: TGI
  IC (TGI): 3.19 µM
[2]; Homo sapiens, MDA-MB-435; read-out: GI50
  GI50: 1.73 µM
[3]
  GI50: 1.74 µM
  IC (TGI): 3.33 µM
[4]
  IC (TGI): 3.25 µM
  GI50: 1.71 µM
[5]
  IC (TGI): 3.37 µM
  GI50: 1.79 µM
  CC50: 5.82 µM
[6]
  GI50: 1.62 µM
[6]; MOLT-4, 48 h, read-out: TGI
  IC (TGI): 3.59 µM
[7]
  GI50: 1.65 µM
  IC (TGI): 3.13 µM
[8]
  GI50: 1.54 µM
  IC (TGI): 3.01 µM
[9]
  GI50: 1.75 µM
  IC (TGI): 3.24 µM
[10]
  GI50: 1.79 µM
[10]; HCT-116, 48 h
  IC (TGI): 3.33 µM
[11]
  GI50: 1.88 µM
  IC (TGI): 3.79 µM
[12]
  GI50: 1.7 µM
[13]
  GI50: 1.83 µM
  IC (TGI): 3.3 µM
[14]
  GI50: 2.05 µM
  IC (TGI): 3.64 µM
[15]
  GI50: 1.64 µM
  IC (TGI): 3.13 µM
[15]; OVCAR-5, 1 dose 10 µM
  Growth % of the Most Sensitive Cell Lines: −87.72%
[16]
  GI50: 1.91 µM
  IC (TGI): 3.65 µM
[17]
  GI50: 1.87 µM
  IC (TGI): 3.3 µM
  CC50: 5.82 µM
[18]
  GI50: 1.92 µM
  IC (TGI): 3.59 µM
[19]
  GI50: 1.74 µM
  IC (TGI): 3.15 µM
  CC50: 5.71 µM
[20]; Homo sapiens
  GI50: 1.62 µM
  IC (TGI): 3.13 µM
[21]
  GI50: 1.58 µM
  IC (TGI): 3 µM
